In brackets after ≈: the same amount, converted by molar mass. Several values for one entry are separate records, joined by “and”; a condition that tells them apart may be missing. Identical values can stand only once. Like-named read-outs stand apart in the source and are kept apart here.
Tests used:
[1] = molecular target: PBP2a (Bacillus subtilis, UniProt P54488); experiment: Fluorescent whole cell β-lactam titration with Boc-FL readout, SDS-PAGE; assay type: cell-based
[2] = test system: B. subtilis PBPs; experiment: PBP inhibition/selectivity profile across all detected PBPs; assay type: cell-based, Bacillus subtilis; conditions: at MIC
[3] = molecular target: T1, PBP3 (Bacillus subtilis, UniProt P42971); experiment: Fluorescent whole cell β-lactam titration with Boc-FL readout, SDS-PAGE; assay type: cell-based
[4] = molecular target: PBP1a/1b (Bacillus subtilis, UniProt P39793); experiment: as above; assay type: cell-based
[5] = molecular target: PBP2b/H (Bacillus subtilis, UniProt Q07868); experiment: as above; assay type: cell-based; conditions: for inhibition of PBP2b at MIC: at growth inhibitory concentration, substantial inhibition (>50%) not the case
[6] = molecular target: PBP4 (Bacillus subtilis, UniProt P40750); experiment: as above; assay type: cell-based
[7] = test system: B. subtilis PY79; experiment: Minimum inhibitory concentration; assay type: cell-based; conditions: Bacillus subtilis
[8] = molecular target: PBP5 (Bacillus subtilis, UniProt P08750); experiment: Fluorescent whole cell β-lactam titration with Boc-FL readout, SDS-PAGE; assay type: cell-based
[9] = test system: B. subtilis PBPs; experiment: β-Lactam titration of DK694; assay type: cell-based, Bacillus subtilis; conditions: DK694 (ΔpbpH) cells
[10] = molecular target: T1, PBP3; experiment: Fluorescence imaging of PBP3 activity with MEM-BODIPY FL in live DK654; assay type: cell-based; conditions: pretreatment 10 μg/mL
[11] = test system: B. subtilis PBPs; experiment: PBP activity profile after growth with sub-MIC meropenem; assay type: cell-based, Bacillus subtilis; conditions: 0.01 μg/mL, 2 h
[12] = IC50 PBP3, B. subtilis PY79 whole cells, average of two experiments
[13] = read-out: IC50 PBP2a, B. subtilis PY79 whole cells, average of two experiments

Chain of PBP4 (P40750 22-624): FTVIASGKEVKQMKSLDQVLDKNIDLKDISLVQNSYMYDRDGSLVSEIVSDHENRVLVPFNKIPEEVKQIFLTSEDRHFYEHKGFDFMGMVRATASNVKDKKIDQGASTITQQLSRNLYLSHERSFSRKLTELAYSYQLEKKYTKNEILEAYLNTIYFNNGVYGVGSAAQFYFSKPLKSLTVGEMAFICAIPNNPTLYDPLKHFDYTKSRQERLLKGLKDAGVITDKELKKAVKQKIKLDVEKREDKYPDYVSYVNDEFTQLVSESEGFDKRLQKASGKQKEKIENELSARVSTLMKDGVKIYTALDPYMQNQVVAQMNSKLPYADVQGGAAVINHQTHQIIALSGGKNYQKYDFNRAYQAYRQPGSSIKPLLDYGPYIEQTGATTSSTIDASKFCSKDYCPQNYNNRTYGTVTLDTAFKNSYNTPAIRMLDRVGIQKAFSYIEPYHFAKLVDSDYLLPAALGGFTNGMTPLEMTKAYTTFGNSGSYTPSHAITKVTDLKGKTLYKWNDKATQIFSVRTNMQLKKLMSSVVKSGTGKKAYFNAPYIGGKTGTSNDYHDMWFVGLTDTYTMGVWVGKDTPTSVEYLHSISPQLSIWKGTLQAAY
Chain of PBP5 (P08750 32-443): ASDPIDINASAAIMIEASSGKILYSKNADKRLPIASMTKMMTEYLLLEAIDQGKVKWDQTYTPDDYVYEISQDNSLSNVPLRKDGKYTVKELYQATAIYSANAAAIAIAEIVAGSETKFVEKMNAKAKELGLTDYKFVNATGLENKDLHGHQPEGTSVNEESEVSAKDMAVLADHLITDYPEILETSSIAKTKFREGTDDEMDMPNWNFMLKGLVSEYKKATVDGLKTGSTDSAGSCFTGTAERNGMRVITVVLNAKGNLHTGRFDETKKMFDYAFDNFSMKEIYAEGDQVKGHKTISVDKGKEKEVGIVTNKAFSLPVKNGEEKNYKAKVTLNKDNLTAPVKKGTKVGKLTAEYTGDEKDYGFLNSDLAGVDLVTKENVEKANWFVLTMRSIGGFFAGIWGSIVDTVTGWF
Chain of PBP1a/1b (P39793 77-662): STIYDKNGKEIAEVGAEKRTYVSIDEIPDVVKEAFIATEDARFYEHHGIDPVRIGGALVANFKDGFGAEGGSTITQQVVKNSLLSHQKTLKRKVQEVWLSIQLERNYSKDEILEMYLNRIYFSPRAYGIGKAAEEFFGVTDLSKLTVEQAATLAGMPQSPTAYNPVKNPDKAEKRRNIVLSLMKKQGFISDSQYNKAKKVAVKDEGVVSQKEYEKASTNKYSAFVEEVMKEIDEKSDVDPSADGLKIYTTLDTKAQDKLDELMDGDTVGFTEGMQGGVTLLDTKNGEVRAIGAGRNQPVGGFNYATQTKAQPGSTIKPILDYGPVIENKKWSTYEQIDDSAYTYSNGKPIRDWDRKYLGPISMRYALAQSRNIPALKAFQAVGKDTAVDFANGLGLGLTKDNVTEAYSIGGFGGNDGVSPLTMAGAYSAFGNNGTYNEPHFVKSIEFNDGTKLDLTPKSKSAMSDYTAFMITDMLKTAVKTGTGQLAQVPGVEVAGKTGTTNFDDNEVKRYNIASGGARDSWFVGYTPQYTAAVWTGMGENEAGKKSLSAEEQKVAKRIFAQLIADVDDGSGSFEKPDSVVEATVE
T1 sequence (P42971 whole entry): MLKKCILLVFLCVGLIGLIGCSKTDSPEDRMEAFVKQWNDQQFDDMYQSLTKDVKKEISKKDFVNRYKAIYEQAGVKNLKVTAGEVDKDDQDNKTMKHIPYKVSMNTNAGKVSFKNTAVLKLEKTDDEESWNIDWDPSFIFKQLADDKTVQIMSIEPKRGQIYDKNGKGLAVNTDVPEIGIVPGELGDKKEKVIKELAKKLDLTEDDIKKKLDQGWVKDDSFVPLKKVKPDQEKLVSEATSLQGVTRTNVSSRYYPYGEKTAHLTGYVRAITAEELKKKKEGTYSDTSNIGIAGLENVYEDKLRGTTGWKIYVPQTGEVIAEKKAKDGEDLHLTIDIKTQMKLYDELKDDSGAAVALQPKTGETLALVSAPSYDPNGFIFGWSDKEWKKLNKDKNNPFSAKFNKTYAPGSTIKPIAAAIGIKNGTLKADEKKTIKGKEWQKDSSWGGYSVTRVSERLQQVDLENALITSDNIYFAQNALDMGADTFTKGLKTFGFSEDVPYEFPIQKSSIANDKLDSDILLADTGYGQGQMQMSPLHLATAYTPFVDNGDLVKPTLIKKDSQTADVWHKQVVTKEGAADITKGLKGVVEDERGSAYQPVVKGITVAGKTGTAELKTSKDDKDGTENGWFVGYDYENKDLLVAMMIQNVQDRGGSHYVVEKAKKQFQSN
Chain of PBP2a (P54488 whole entry): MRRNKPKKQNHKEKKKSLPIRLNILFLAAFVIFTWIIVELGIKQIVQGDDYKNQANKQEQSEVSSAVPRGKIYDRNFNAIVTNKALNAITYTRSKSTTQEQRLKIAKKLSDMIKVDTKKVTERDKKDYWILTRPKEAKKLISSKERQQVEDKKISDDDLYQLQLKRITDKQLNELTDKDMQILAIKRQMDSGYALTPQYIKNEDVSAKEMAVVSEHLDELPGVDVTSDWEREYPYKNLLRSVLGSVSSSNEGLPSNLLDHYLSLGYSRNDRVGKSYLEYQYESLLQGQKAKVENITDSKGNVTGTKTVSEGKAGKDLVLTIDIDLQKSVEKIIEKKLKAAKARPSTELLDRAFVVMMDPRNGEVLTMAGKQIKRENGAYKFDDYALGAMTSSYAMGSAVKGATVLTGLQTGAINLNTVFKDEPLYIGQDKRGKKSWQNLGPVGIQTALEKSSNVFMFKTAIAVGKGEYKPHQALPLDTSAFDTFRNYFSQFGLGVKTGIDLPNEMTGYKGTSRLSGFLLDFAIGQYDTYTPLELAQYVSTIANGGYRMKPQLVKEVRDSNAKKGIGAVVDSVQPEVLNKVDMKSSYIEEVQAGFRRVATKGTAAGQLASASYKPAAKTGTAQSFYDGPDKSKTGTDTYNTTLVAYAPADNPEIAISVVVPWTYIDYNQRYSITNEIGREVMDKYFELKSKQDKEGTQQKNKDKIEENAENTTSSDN
Chain of PBP2b/H (Q07868 whole entry): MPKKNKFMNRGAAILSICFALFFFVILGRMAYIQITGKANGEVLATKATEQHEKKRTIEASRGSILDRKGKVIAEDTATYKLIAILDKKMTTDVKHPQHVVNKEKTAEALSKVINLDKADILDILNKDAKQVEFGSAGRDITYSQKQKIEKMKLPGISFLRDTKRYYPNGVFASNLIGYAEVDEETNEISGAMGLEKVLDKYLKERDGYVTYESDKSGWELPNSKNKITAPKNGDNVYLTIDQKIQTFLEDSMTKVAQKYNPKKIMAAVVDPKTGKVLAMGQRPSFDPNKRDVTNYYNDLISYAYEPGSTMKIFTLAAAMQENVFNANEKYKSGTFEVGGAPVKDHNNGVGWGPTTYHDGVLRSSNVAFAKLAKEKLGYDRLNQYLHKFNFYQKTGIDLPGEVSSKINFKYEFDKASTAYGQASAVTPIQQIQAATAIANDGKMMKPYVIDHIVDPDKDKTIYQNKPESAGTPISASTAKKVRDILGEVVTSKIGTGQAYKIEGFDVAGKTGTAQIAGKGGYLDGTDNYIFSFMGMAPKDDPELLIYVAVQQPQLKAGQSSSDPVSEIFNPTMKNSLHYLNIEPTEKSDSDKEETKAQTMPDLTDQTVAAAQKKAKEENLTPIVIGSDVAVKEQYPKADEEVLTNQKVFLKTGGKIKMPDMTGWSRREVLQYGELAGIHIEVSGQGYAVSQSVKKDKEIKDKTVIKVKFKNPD

SMILES | IC50 [1] [µM] | PBP inhibition at growth inhibitory concentrations [2] | IC50 [3, 12] [µM] | IC50 [4] [µM] | IC50 [5] [µM] | inhibition of PBP2b at MIC [5] [%] | IC50 [6] [µM] | MIC [7] [µg/mL] | IC50 [8] [µM] | IC50 values for individual PBPs in DK694 (ΔpbpH) versus wild type [9] | IC50 [1, 13] [µM] | IC50 ([3]; read-out: IC50 PBP3, B. subtilis PY79 whole cells, average of two experiments) [µM] | MEM-BODIPY FL fluorescent signal upon pretreatment of the cells [10] | IC50 ([3]; 50% inhibition of PBP3, concentration in μM, corresponding to 0.26 μg/mL) [µM] | concentration for complete inhibition of PBP3 ([3]; B. subtilis whole cells) | concentration for complete inhibition of PBP3 ([3]; corresponding to 1 μg/mL) [µM] | PBP inhibition after growth with sub-MIC concentration [11] | concentration for selective and complete inhibition of PBP5 ([8]; B. subtilis whole cells) | concentration for selective and complete inhibition of PBP5 ([8]; corresponding to ~1 μg/mL) [µM]
CC1(C)S[C@@H]2[C@H](N)C(=O)N2[C@H]1C(=O)O [6-APA, 6-Aminopenicillanic acid] | 511 | failed to significantly block any PBPs | > 4620 | > 4620 | > 4620 | ≤ 50 | > 4620 | 8 to 256 (≈ 37 to 1180 µM) | 19 |  |  |  |  |  |  |  |  |  | 
CC1(C)S[C@@H]2[C@H](NC(=O)[C@H](N)c3ccc(O)cc3)C(=O)N2[C@H]1C(=O)O [amoxicillin] | 0.203 |  | 0.383 | 0.00274 | 0.241 |  | 0.208 | 4 (≈ 10.9 µM) | 3.04 |  |  |  |  |  |  |  |  |  | 
CC1(C)S[C@@H]2[C@H](NC(=O)[C@H](N)c3ccccc3)C(=O)N2[C@H]1C(=O)O [ampicillin] | 0.0103 |  | 0.12 | < 0.0286 | 0.0269 |  | 0.0106 | 8 (≈ 22.9 µM) | 0.343 | comparable and within twofold in most cases |  |  |  |  |  |  |  |  | 
C[C@H]1[C@H](NC(=O)/C(=N\OC(C)(C)C(=O)O)c2csc(N)n2)C(=O)N1S(=O)(=O)O [aztreonam] |  |  |  |  |  | ≤ 50 |  | 16 (≈ 36.7 µM) |  |  |  |  |  |  |  |  |  |  | 
CO/N=C(\C(=O)N[C@@H]1C(=O)N2C(C(=O)O)=C(COC(C)=O)CS[C@H]12)c1csc(N)n1 [cefotaxime] |  |  | 2.17 | 0.00285 | < 0.22 |  | < 0.22 | 0.0625 (≈ 0.137 µM) | > 2200 |  | < 220 |  |  |  |  |  |  |  | 
CO[C@@]1(NC(=O)Cc2cccs2)C(=O)N2C(C(=O)O)=C(COC(N)=O)CS[C@@H]21 [cefoxitin] | 1.68 |  | 2.43 | 0.0328 | 0.444 |  | 0.0328 | 1 (≈ 2.34 µM) | 0.444 |  |  |  |  |  |  |  |  |  | 
NC(=O)c1cc[n+](CC2=C(C(=O)O)N3C(=O)[C@@H](NC(=O)[C@@H](c4ccccc4)S(=O)(=O)[O-])[C@H]3SC2)cc1 [cefsulodin] | 71.4 |  | 260 | 0.0184 | 1.24 |  | 0.225 | 8 (≈ 15 µM) | > 1880 |  |  |  |  |  |  |  |  |  | 
CO/N=C(\C(=O)N[C@@H]1C(=O)N2C(C(=O)O)=C(CSc3nc(=O)c(=O)[nH]n3C)CS[C@H]12)c1csc(N)n1 [ceftriaxone] | 29.4 |  | 4.69 | 0.0135 | 0.119 |  | 0.0361 | 0.25 (≈ 0.451 µM) | > 1800 |  |  |  |  |  |  |  |  |  | 
CO/N=C(\C(=O)N[C@@H]1C(=O)N2C(C(=O)O)=C(COC(N)=O)CS[C@H]12)c1ccco1 [cefuroxime] | 65.7 |  | 52.3 | 0.00424 | 0.189 |  | 0.0353 | 0.125 (≈ 0.295 µM) | > 2360 |  |  |  |  |  |  |  |  |  | 
CC1=C(C(=O)O)N2C(=O)[C@@H](NC(=O)[C@H](N)c3ccccc3)[C@H]2SC1 [cephalexin] | < 0.288 |  | 69.4 | > 2880 | < 0.288 |  | 732 | 0.5 (≈ 1.44 µM) | > 2880 |  |  |  |  |  |  |  |  |  | 
CC(=O)OCC1=C(C(=O)O)N2C(=O)[C@@H](NC(=O)Cc3cccs3)[C@H]2SC1 [cephalothin] | 0.0164 |  | 29.8 | 0.00656 | 0.0192 |  | 0.0151 | 0.0312 (≈ 0.0788 µM) | 273 |  |  |  |  |  |  |  |  |  | 
Cc1onc(-c2ccccc2Cl)c1C(=O)N[C@@H]1C(=O)N2[C@@H]1SC(C)(C)[C@@H]2C(=O)O [cloxacillin] | 0.206 |  |  | > 2290 | 0.298 | ≤ 50 | 0.0505 | 0.125 (≈ 0.287 µM) | > 2290 |  |  | < 2290 |  |  |  |  |  |  | 
C[C@@H](O)[C@H]1C(=O)N2C(C(=O)O)=C(S[C@@H]3CN[C@H](CNS(N)(=O)=O)C3)[C@H](C)[C@H]12 [doripenem] |  |  | 0.285 | > 2380 |  |  | > 2380 | 0.0625 (≈ 0.149 µM) | 0.547 |  | < 2380 |  |  |  |  |  |  |  | 
C[C@@H](O)[C@H]1C(=O)N2C(C(=O)O)=C([C@H]3CCCO3)S[C@H]12 [faropenem] | 0.0386 |  | 3.29 | 0.00207 | 0.0179 |  | 0.0315 | 0.125 (≈ 0.438 µM) | 0.701 |  |  |  |  |  |  |  |  |  | 
CC1(C)S[C@@H]2[C@H](/N=C/N3CCCCCC3)C(=O)N2[C@H]1C(=O)O [mecillinam] | 20.6 |  | 275 | > 3070 | 3.29 |  | > 3070 | 16 (≈ 49.2 µM) | > 3070 |  |  |  |  |  |  |  |  |  | 
C[C@@H](O)[C@H]1C(=O)N2C(C(=O)O)=C(S[C@@H]3CN[C@H](C(=O)N(C)C)C3)[C@H](C)[C@H]12 [meropenem] |  |  | 0.678 | > 2610 |  | ≤ 50 | ≥ 2610 | 0.0625 (≈ 0.163 µM) | 0.574 |  | < 2610 |  | significantly reduced | 0.67 | ~ 1 μg/mL and 1 μg/mL | 2.6 | No significant inhibition | ~ 1 μg/mL | 2.6
COc1cccc(OC)c1C(=O)N[C@@H]1C(=O)N2[C@@H]1SC(C)(C)[C@@H]2C(=O)O [methicillin] | < 0.0263 |  | 23.7 | > 2630 | < 0.263 |  | 0.289 | 0.25 (≈ 0.657 µM) | 391 | comparable and within twofold in most cases |  |  |  |  |  |  |  |  | 
Cc1onc(-c2ccccc2)c1C(=O)N[C@@H]1C(=O)N2[C@@H]1SC(C)(C)[C@@H]2C(=O)O [oxacillin] | 0.139 |  | 166 | > 2490 | 0.152 | ≤ 50 | < 0.249 | 0.25 (≈ 0.623 µM) | > 2490 |  |  |  |  |  |  |  |  |  | 
CC1(C)S[C@@H]2[C@H](NC(=O)Cc3ccccc3)C(=O)N2[C@H]1C(=O)O [penicillin G] | 0.0129 |  | 4.19 | > 2990 | 0.0568 |  | 0.0269 | 16 (≈ 47.8 µM) |  |  |  |  |  |  |  |  |  |  | 
CC1(C)S[C@@H]2[C@H](NC(=O)COc3ccccc3)C(=O)N2[C@H]1C(=O)O [penicillin V] | 0.0012 |  | 5.82 | < 0.0285 | < 0.0285 |  | < 0.0285 | 32 (≈ 91.3 µM) | 1.77 |  |  |  |  |  |  |  |  |  | 
CCN1CCN(C(=O)N[C@@H](C(=O)N[C@@H]2C(=O)N3[C@@H]2SC(C)(C)[C@@H]3C(=O)O)c2ccccc2)C(=O)C1=O [piperacillin] | 0.309 |  | 3.67 | 0.00232 | < 1.93 |  | 0.058 | 64 (≈ 124 µM) | 21.8 |  |  |  |  |  |  |  |  |  | 

— PMC7784776 (ACS chemical biology, 2020)
